Measurements as given in patent US7244763B2, “Compounds that modulate PPAR activity and methods of preparation” (Warner Lambert Company LLC, priority 2003, dated 2007).
One block for each molecule: values may come before it.

Assays:
hPPARβ = target: T1, hPPARβ (Homo sapiens, UniProt Q03181); experiment: Test A transient transfection assay, HepG2 cells, Gal4-PPAR chimeric receptor luciferase reporter (Hep G2-hBeta); format: cell-based; conditions: HepG2 cells transfected with hPPARβ chimeric receptor, 24 hours, read-out: EC50β (Hep G2-hBeta EC50)
T1 construct: expression plasmids encoding hPPARα, hPPARβ or mPPARγ chimeric receptors
T1 sequence (Q03181 171-441 limits assumed): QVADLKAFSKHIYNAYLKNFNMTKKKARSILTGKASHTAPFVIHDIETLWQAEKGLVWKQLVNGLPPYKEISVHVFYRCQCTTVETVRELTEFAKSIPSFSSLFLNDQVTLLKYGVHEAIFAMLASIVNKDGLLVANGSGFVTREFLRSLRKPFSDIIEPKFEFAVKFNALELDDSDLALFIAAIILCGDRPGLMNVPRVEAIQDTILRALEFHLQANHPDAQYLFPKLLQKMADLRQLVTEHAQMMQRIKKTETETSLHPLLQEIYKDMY
Experimental: (§1) 1. Test A. Transient Transfections Assay Using the HepG2 Hepatoma Cell Line.
(§2) HepG2 cells were transiently transfected with an expression plasmids encoding hPPARα, hPPARβ or mPPARγ chimeric receptors and a reporter containing the yeast upstream activating sequence (UAS) upstream of the viral E1B promoter controlling a luciferase reporter gene. In addition, the plasmid pRSVβ-gal was used to control for transfection efficiency. HepG2 cells were grown in DMEM supplemented with 10% FBS and 1 μM non-essential amino acid. On the first day, cells were split into 100 mm dishes at 2.5×10^6/dish and incubated overnight at 37C.°/5% CO2. On the second day the cells were transiently transfected with plasmid DNA encoding a chimeric receptor, the luciferase reporter gene; and β-gal. For each 100 mm dish, 15 μg of luciferase reporter (PG5E1b) DNA, 15 μg of Gal4-PPAR chimeric receptor DNA, and 1.5 μg of β-gal plasmid DNA were mixed with 1.4 ml of opti-MEM in the tube. 281 μl of LipoFectamine-2000 reagent was added to 1.4 ml of opti-MEM in the tube, and incubate for 5 min at RT. The diluted Lipofectamine-2000 reagent was combined with the DNA mixture, and incubate for 20 min at RT. After fresh medium was added to each 100 mm dish of cells, 2.8 ml of Lipofectamine2000-DNA mixture was added dropwise to the 100 mm dish containing 14 ml of medium, and incubate 37° C. overnight. […]

human PPARβ LBD = target: T2, human PPARβ LBD (Homo sapiens, UniProt Q03181); experiment: Test B radioligand competition binding assay (SPA), PPARβ LBD-GST fusion protein; conditions: concentration that inhibits 50% of interaction between PPARβ LBD and tritiated ligand
T2 construct: made in house; host or cells: E. coli BL21(DE3)pLysS
T2 sequence (Q03181 211-439 limits assumed): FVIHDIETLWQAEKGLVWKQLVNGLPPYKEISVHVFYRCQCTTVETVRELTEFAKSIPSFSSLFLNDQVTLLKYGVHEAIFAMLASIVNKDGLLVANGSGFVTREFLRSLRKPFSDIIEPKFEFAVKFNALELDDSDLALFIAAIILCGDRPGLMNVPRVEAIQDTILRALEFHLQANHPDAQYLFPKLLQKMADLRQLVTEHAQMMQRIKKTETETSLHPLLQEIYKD
Description: 2. Test B. Radioligand Binding Assay
The ability of a compound to interact with PPARβ can be determined using a competition-based receptor binding assay that employs a radiolabeled PPARβ ligand together with a fragment of the PPARβ receptor containing the ligand binding domain (LBD) fused to the protein glutathione-S-transferase (GST). • [1] Preparation of PPARβ LBD-GST fusion protein. The ligand binding domain of the human PPARβ LBD-GST fusion protein can be expressed in E. coli and purified as outlined below. DNA encoding the LBD of human PPARβ is amplified via PCR and inserted in-frame into the bacterial expression vector pGEX-2t PPARβ LBD-GST fusion proteins are expressed in BL21(DE3)pLysS cells. After a 1–2 hr incubation with up to 1 mM IPTG, the cells are lysed by freeze-thaw in buffer containing 50 mM Tris (pH=8), 250 mM KCl, 10 mM DTT, 1 mM PMSF, and 1% triton X-100. After room temperature DNAse and RNAse treatment for 15 min and centrifugation for 1 hr at 50,000×g, 1.5 ml of a glutathione-Sepharose 4B slurry in PBS is added to the resulting supernatant and the mixture is incubated at room temperature for 30 min. […] After incubation with shaking at room temperature for 30 minutes, radioactivity bound to the PPARβ LBD-GST fusion protein/anti-GST/SPA antibody-binding bead complex is assessed using a Wallac MicroBeta plate reader. […]

PPARαLBD = target: T3, PPARαLBD (Homo sapiens, UniProt Q07869); experiment: Test B radioligand competition binding assay, similar procedure with PPARα LBD; conditions: competition binding to PPARα LBD
T3 construct: GST (inferred from 'similar procedure')
T3 sequence (Q07869 239-466 limits assumed): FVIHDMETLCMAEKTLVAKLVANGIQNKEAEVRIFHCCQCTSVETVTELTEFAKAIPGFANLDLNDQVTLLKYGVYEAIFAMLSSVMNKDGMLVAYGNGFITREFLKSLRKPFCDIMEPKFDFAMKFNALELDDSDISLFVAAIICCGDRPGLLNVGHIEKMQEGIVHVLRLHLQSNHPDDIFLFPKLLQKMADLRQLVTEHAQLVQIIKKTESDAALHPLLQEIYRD

hPPARα = target: T4, hPPARα (Homo sapiens, UniProt Q07869); experiment: Test A transient transfection assay, HepG2 cells, Gal4-PPAR chimeric receptor luciferase reporter (Hep G2-hAlpha); format: cell-based; conditions: HepG2 cells transfected with hPPARα chimeric receptor, 24 hours, read-out: EC50α (Hep G2-hAlpha EC50)
T4 construct: expression plasmids encoding hPPARα, hPPARβ or mPPARγ chimeric receptors
T4 sequence (Q07869 200-468 limits assumed): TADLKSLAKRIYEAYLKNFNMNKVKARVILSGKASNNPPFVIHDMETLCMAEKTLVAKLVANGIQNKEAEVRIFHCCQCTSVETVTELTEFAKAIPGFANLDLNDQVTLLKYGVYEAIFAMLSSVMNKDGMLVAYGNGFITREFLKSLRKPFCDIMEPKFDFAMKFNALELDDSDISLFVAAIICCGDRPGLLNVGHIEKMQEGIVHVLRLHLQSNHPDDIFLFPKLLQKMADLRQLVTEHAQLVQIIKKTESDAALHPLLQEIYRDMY
Experimental: as §1, §2

EC50 (hPPARβ): 6660 nM
Compound: O=C(O)CC1CCc2cc(SCc3ccc(-c4ccc(C(F)(F)F)cn4)cc3)ccc2O1 (centres unmarked) [Compound 10, {6-[4-(5-Trifluoromethyl-pyridin-2-yl)-benzylsulfanyl]-chroman-2-yl}-acetic acid]

IC50 (human PPARβ LBD): 449 nM | EC50 (hPPARβ): 303 nM
Compound: COc1cc(C(C)(C)C(=O)O)ccc1SCc1ccc(-c2ccc(C(F)(F)F)cn2)cc1 [Compound 21, 2-{3-Methoxy-4-[4-(5-trifluoromethyl-pyridin-2-yl)-benzylsulfanyl]-phenyl}-2-methyl-propionic acid]

melting point: 169 to 170 °C
Compound: O=C(O)COc1ccc(SCc2ccc(OC3CCc4cc(Cl)ccc43)cc2)c2c1CCC2 (centres unmarked) [Compound 23, {7-[4-(5-Chloro-indan-1-yloxy)-benzylsulfanyl]-indan-4-yloxy}-acetic acid]

EC50 (hPPARα): 1960 nM
Compound: O=C(O)C1(c2ccc(SCc3ccc(-c4ccc(C(F)(F)F)cc4)cc3)cc2)CC1 [Compound 36, 1-[4-(4′-Trifluoromethyl-biphenyl-4-ylmethylsulfanyl)-phenyl]-cyclopropanecarboxylic acid]

Second part, the molecule before the results:

Compound: O=C(O)Cc1coc2cc(OCc3cc(-c4ccc(Cl)cc4)on3)ccc12 [Compound 24, {6-[5-(4-Chloro-phenyl)-isoxazol-3-ylmethoxy]-benzofuran-3-yl}-acetic acid]
melting point: 193 to 194 °C

Compound: O=C(O)Cc1coc2cc(OCc3ccc(OCc4ccc(C(F)(F)F)cc4)cc3)ccc12 [Compound 25, {6-[4-(4-Trifluoromethyl-benzyloxy)-benzyloxy]-benzofuran-3-yl}-acetic acid]
melting point: 161 to 163 °C

Compound: Cc1cc(SCCCc2ccc3ccccc3c2)ccc1OCC(=O)O [Compound 27, [2-Methyl-4-(3-naphthalen-2-yl-propylsulfanyl)-phenoxy]-acetic acid]
IC50 (PPARαLBD): 3540 nM

Compound: Cc1cc(SCCCCOc2ccc(Cl)cc2Cl)ccc1OCC(=O)O [Compound 31, {4-[4-(2,4-Dichloro-phenoxy)-butylsulfanyl]-2-methyl-phenoxy}-acetic acid]
IC50 (human PPARβ LBD): 6.8 nM

Compound: O=C(O)Cc1csc2c(OCc3cc(-c4ccc(Cl)cc4)on3)cccc12 [Compound 77, {7-[5-(4-Chloro-phenyl)-isoxazol-3-ylmethoxy]-benzo[b]thiophen-3-yl}-acetic acid]
melting point: 229 to 230 °C (dec.)

Compound: Cc1cc2c(CC(=O)O)csc2cc1OCc1ccccc1OCc1ccc(C(F)(F)F)cc1 [Compound 78, {5-Methyl-6-[2-(4-trifluoromethyl-benzyloxy)-benzyloxy]-benzo[b]-thiophen-3-yl}-acetic acid]
melting point: 157 to 158 °C
